{
  "source": "patent US4080454A",
  "about": "“5-M-Tolyloxyuracil, anti-ulcer agent” (priority 1976, dated 1978)",
  "key": {"FUDR phosphorylase": {"system": "FUDR phosphorylase", "settings": "J. Med. Chem., 13, 461 (1970); cited from earlier work"}, "thymidine phosphorylase": {"system": "thymidine phosphorylase", "settings": "J. Med. Chem., 14, 812 (1971); cited from earlier work"}, "[1]": {"settings": "literature; cited from earlier work"}, "[2]": {"assay": "Plasma pharmacokinetics in human subjects", "format": "in vivo", "procedure": "(§1) In man, using single doses of 400 to 700 mg of 5-(m-methylphenoxy)-2-(1H)pyrimidinone, this drug had declined below the level of detectability by 2 hours post dose.\nIn our studies in animals and man we have never been able to isolate 5-m-tolyloxyuracil in substantially pure form. Rather we have obtained samples of urine and blood plasma from animals and man consisting of a multitude of natural components, one of which we have identified as 5-m-tolyloxyuracil by comparison of its physical properties with material prepared in substantially pure form by the synthesis described in the present application. Indeed, in samples of plasma from human subjects treated with 5-m-tolyloxy-2(1H)pyrimidinone we have only detected peak levels of 5-m-tolyloxyuracil at the very low concentration of 40 ug/ml. When we say \"in substantially pure form\", we mean a purity of 95% or greater."}, "[3]": {"system": "stress induced gastric ulceration", "assay": "Cold-restraint stress induced gastric ulceration (antiulcer activity)", "format": "in vivo, female rats", "settings": "for % incidence of lesions / Number of lesions: 3 h before stress; for Number of lesions: total in group", "procedure": "In order to test the antiulcer activity of 5-m-tolyloxyuracil, stress induced gastric ulceration was produced by immobilizing non-fasted, female rats in a supine position and placing them in a refrigerator at 12° C. for 3 hours. Experimental drugs were administered 3 hours before the initiation of the cold-restraint stress period. At the conclusion of the stress period, the rats were sacrificed, their stomachs inflated with 5 ml of water and removed. The isolated stomachs were placed in a 4 percent aqueous solution of formaldehyde to stiffen the serosal side of the inflated stomach. This procedure facilitates examination of the stomach which is accomplished by slitting the stomach along its greater curvature and noting the number and incidence of gastric lesions. Both control and experimental drug groups consisted of ten rats. A significant reduction in the number and incidence of gastric lesions characterizes antiulcer agents.\nThe table below compares 5-m-tolyoxyuracil (Compound A) with 5-m-tolyloxy-2-thiouracil (Compound B), Carbenoxolone-Na (Compound C), and 5-(m-methylphenoxy)-2(1H)-pyrimidinone (Compound D).\nPercent incidence of lesions is defined as follows. [formula] Number of lesions is the total number of lesions in the experimental group."}, "[4]": {"assay": "Metabolism of 5-(m-methylphenoxy)-2-(1H)pyrimidinone / 5-m-tolyloxyuracil in rats (C2 radiolabel)", "format": "in vivo"}, "[5]": {"assay": "Metabolism of 5-(m-methylphenoxy)-2-(1H)pyrimidinone / 5-m-tolyloxyuracil in monkeys (C2 radiolabel)", "format": "in vivo"}, "gastric ulcer": {"system": "gastric ulcer", "settings": "human gastric ulcer patients; cited from earlier work"}, "[6]": {"system": "experimentally-induced gastric ulceration", "settings": "animals; cited from earlier work"}, "[7]": {"assay": "Search for other metabolic modifications of 5-(m-methylphenoxy)-2-(1H)pyrimidinone", "parameters": "species or system rats, monkeys and human subjects", "settings": "in vivo", "procedure": "U.S. Pat. No. 3,922,345 discloses the method of treating peptic ulcers which comprises administering to a subject afflicted therewith a daily dose of about 0.60 to 21 mg per kg. of body weight of 5-(m-methylphenoxy)-2-(1H)-pyrimidinone. […] We have been unable to detect metabolic products resulting from (1) phenoxy ring hydroxylation, (2) oxidation of the m-methyl group or (3) ether cleavage."}, "[8]": {"assay": "Metabolic conversion in human subjects", "format": "in vivo", "procedure": "as §1"}, "[9]": {"settings": "rats, cold-restraint stress, doses of the table"}, "[10]": {"settings": "endogenously generated 5-m-tolyloxyuracil"}},
  "note": "Entries after “also recorded” stand apart in the source; their conditions may differ.",
  "data": [
    {"compound": "O=c1[nH]cc(Oc2ccccc2)c(=O)[nH]1", "note": "[5-Phenoxyuracil]", "values": [
      {"measurement": "inhibition of FUDR phosphorylase", "setting": "FUDR phosphorylase", "result": "poor activity"},
      {"measurement": "inhibition of thymidine phosphorylase", "setting": "thymidine phosphorylase", "result": "poor activity"}
    ]},
    {"compound": "O=c1[nH]cc(F)c(=O)[nH]1", "note": "[5-fluorouracil]", "values": [
      {"measurement": "metabolic conversion / degradation", "setting": "[1]", "result": "metabolically converted to 5,6-dihydrouracils which undergo ring opening with subsequent loss of the C2 pyrimidine carbon as carbon dioxide; also recorded: undergoes a reduction of the 5,6-double bond to give a 5,6-dihydrouracil which subsequently undergoes ring opening to an N-acetamido βalanine which then loses the C-2 pyrimidine carbon as carbon dioxide"}
    ]},
    {"compound": "Cc1cccc(Oc2c[nH]c(=O)[nH]c2=O)c1", "note": "[Compound A, 5-m-tolyloxyuracil]", "values": [
      {"measurement": "plasma half life compared with 5-(m-methylphenoxy)-2-(1H)pyrimidinone", "setting": "[2]; human subjects", "result": "much longer plasma half life; also recorded: much longer plasma half-life"},
      {"measurement": "peak plasma concentration compared with parent drug", "setting": "[2]; human, endogenously generated after single 400 to 700 mg doses of 5-(m-methylphenoxy)-2-(1H)pyrimidinone", "result": "peak concentrations greater than that of parent drug"},
      {"measurement": "% incidence of lesions", "setting": "[3]; 32 mg/kg ip, control 100", "result": 56, "unit": "%"},
      {"measurement": "Number of lesions", "setting": "[3]; 32 mg/kg ip, control 58", "result": 19},
      {"measurement": "% incidence of lesions", "setting": "[3]; 50 mg/kg ip, control 100", "result": 70, "unit": "%"},
      {"measurement": "Number of lesions", "setting": "[3]; 50 mg/kg ip, control 58", "result": 34},
      {"measurement": "antiulcer activity (in words)", "setting": "[3]; [9]", "result": "effective antiulcer agents at both doses tested since the number and incidence of lesions following drug treatment are significantly lower (P value < 0.05) than in controls"},
      {"measurement": "antiulcer activity (in words)", "setting": "[3]; rats, cold-restraint stress, doses of the table, listed as 5-m-tolyloxyuracil", "result": "protects rats against ulceration"},
      {"measurement": "metabolic degradation (ring opening, loss of C2 as carbon dioxide)", "setting": "[4]; [10]", "result": "does not undergo this metabolic degradation; also recorded: no appriciable quantities of radioactive CO2 were observed"},
      {"measurement": "metabolic degradation (ring opening, loss of C2 as carbon dioxide)", "setting": "[5]; [10]", "result": "does not undergo this metabolic degradation; also recorded: no appriciable quantities of radioactive CO2 were observed"}
    ]},
    {"compound": "Cc1cccc(Oc2c[nH]c(=S)[nH]c2=O)c1", "note": "[Compound B, 5-m-tolyloxy-2-thiouracil]", "values": [
      {"measurement": "% incidence of lesions", "setting": "[3]; 10 mg/kg po, control 80", "result": 80, "unit": "%"},
      {"measurement": "Number of lesions", "setting": "[3]; 10 mg/kg po, control 31", "result": 50},
      {"measurement": "antiulcer activity (in words)", "setting": "[3]; [9]", "result": "inactive"}
    ]},
    {"compound": "CC1(C(=O)O)CCC2(C)CCC3(C)C(=CC(=O)C4C5(C)CCC(OC(=O)CCC(=O)O)C(C)(C)C5CCC43C)C2C1", "note": "(stereo not shown) [Compound C, Carbenoxolone-Na]", "values": [
      {"measurement": "gastric antiulcer efficacy in clinical trials", "setting": "gastric ulcer", "result": "effective gastric antiulcer agent"},
      {"measurement": "protection from experimentally-induced gastric ulceration", "setting": "[6]", "result": "known to protect animals from experimentally-induced gastric ulceration"},
      {"measurement": "antiulcer activity (in words)", "setting": "[3]; 32 mg/kg", "result": "less active at 32 mg/kg at which dose the activity is not significant at the P = 0.05 level"},
      {"measurement": "% incidence of lesions", "setting": "[3]; 32 mg/kg ip, control 50", "result": 40, "unit": "%"},
      {"measurement": "Number of lesions", "setting": "[3]; 32 mg/kg ip, control 15", "result": 9},
      {"measurement": "antiulcer activity (in words)", "setting": "[3]; 60 mg/kg", "result": "significantly active (P < 0.05)"},
      {"measurement": "% incidence of lesions", "setting": "[3]; 60 mg/kg ip, control 65", "result": 25, "unit": "%"},
      {"measurement": "Number of lesions", "setting": "[3]; 60 mg/kg ip, control 24", "result": 7}
    ]},
    {"compound": "Cc1cccc(Oc2cnc(=O)[nH]c2)c1", "note": "[Compound D, 5-(m-methylphenoxy)-2(1H)-pyrimidinone]", "values": [
      {"measurement": "other metabolic modifications (phenoxy ring hydroxylation, m-methyl oxidation, ether cleavage)", "setting": "[7]", "result": "do not occur to any detectable extent"},
      {"measurement": "time post dose to decline below the level of detectability", "setting": "[2]; human, single doses of 400 to 700 mg", "result": "≤ 2", "unit": "h"},
      {"measurement": "% incidence of lesions", "setting": "[3]; 10 mg/kg ip, control 90", "result": 60, "unit": "%"},
      {"measurement": "Number of lesions", "setting": "[3]; 10 mg/kg ip, control 42", "result": 12},
      {"measurement": "% incidence of lesions", "setting": "[3]; 32 mg/kg ip, control 90", "result": 40, "unit": "%"},
      {"measurement": "Number of lesions", "setting": "[3]; 32 mg/kg ip, control 34", "result": 13},
      {"measurement": "antiulcer activity (in words)", "setting": "[3]; [9]", "result": "effective antiulcer agents at both doses tested since the number and incidence of lesions following drug treatment are significantly lower (P value < 0.05) than in controls"},
      {"measurement": "metabolic conversion to 5-m-tolyloxyuracil", "setting": "[8]", "result": "rapidly and efficiently metabolically converted to 5-m-tolyloxyuracil"},
      {"measurement": "metabolic conversion to 5-m-tolyloxyuracil", "setting": "[4]", "result": "rapidly and efficiently metabolically converted to 5-m-tolyloxyuracil"},
      {"measurement": "metabolic conversion to 5-m-tolyloxyuracil", "setting": "[5]", "result": "rapidly and efficiently metabolically converted to 5-m-tolyloxyuracil"}
    ]}
  ]
}
